Legend:
Anopheles gambiae = details: J. Med. Entomol. 41 (4) (2004); cited from earlier work
Aedes aegypti = details: J. Med. Entomol. 41 (4) (2004); cited from earlier work
[1] = system: VKPR mosquito strain (also called VKPER) of Anopheles gambiae; details: VKPR strain with mutation for knockdown resistance to pyrethroids; cited from earlier work
Culex quinquefasciatus = details: J. Med. Entomol. 41 (4) (2004); cited from earlier work
[2] = system: ACE (acetylcholinesterase) of sensitive mosquitoes; details: 10 microliters insecticide solution (10^-2 M), 15 min at ambient temperature, optical density over 10 min
Procedure: (§1) The differences in the properties of the ACE (acetylcholinesterase) between mosquitoes that have this form of resistance and sensitive mosquitoes can be detected using the following test: • Experimental protocol TESTS No.-1: Sensitive and resistant mosquitoes.
(§2) 1° the mosquito (or larva) is crushed and the crushed material is homogenized in an Eppendorf tube with a buffer solution (20 mM tris, pH 7, containing 1% of Triton X-100). After centrifugation at 10,000 g for 2 minutes, the supernatant (which contains the ACE) is collected and distributed in the wells (A) and (B) of a microplate (100 microliters in each well),
(§3) Johnson in well (B), and 10 microliters of alcohol, in well (A). The microplate is left for 15 min at ambient temperature (which is sufficient to allow the action, if any, of the insecticide),
(§4) 3°determination of the catalytic activity of the ACE (acetylcholinesterase): in each well is added 100 microliters of a solution containing acetylcholine (2.5 mM) and 0.2 mM of DTNB (dinitro-2-benzoic). The intensity of the coloration is assessed by measuring the optical density (the optical density increases based on the coloration) If the enzyme is active, the products of the hydrolysis of the acetylcholine react with the DTNB to produce a substance that features an absorption peak for the radiations of 412 nm. It is therefore possible to follow the reaction by spectrophotometry. […]

[3] = system: ACE (acetylcholinesterase) of resistant mosquitoes; details: 10 microliters insecticide solution (10^-2 M), 15 min at ambient temperature, optical density over 10 min
Procedure: as §1, §2, §3, §4

**Q.** Which Effect on mosquitoes (Anopheles gambiae) does the source give for `CN/C(=N/CC1CCOC1)N[N+](=O)[O-]` (stereo not drawn) [Dinotefuran] here?
**A.** lethal effect

**Q.** And the Effect on mosquitoes (Aedes aegypti)?
**A.** lethal effect

**Q.** And the Effect on mosquitoes [1]?
**A.** lethal effect

**Q.** And the Effect on mosquitoes (Culex quinquefasciatus)?
**A.** lethal effect

**Q.** With `CNC(=O)Oc1ccccc1OC(C)C` [Propoxur] as the compound, how does the “Effect of the insecticide on ACE catalytic activity (evolution of the optical density, insecticide well (B) vs control well (A))” value [2] read?
**A.** insufficient to prevent the Propoxur insecticide (Baygon) from working

**Q.** And the “Effect of the insecticide on ACE catalytic activity (evolution of the optical density, insecticide well (B) vs control well (A))” value [3]?
**A.** completely resistant

Source: patent publication US20250324969A1
